In general, IC50 refers to the concentration at which inhibition is half-maximal.

Holding throughout (format): biochemical
One assay concerns the target MDM2 (Homo sapiens, UniProt Q00987). The experiment in a line: Plate-based E3 ligase assay, MDM2 autoubiquitination (MDM2-FLAG). The following applies: Table 2; read-out: MDM2 IC50. On the procedure: (§1) E3 (His-APC11/APC2—“APC”) auto-ubiquitination was measured as described in U.S. patent application Ser. No. 09/826,312 (Publication No. US-2002-0042083-A1), which is incorporated herein in its entirety. Details of the protocol are described below. Activity in the presence of the compound was determined relative to a parallel control in which only DMSO was added. Values of the IC50 were typically determined using 6 or 8 different concentrations of the compound, although as few as 2 concentrations may be used to approximate the IC50 value.
(§2) Nickel-coated 96-well plates (Pierce 15242) were blocked for 1 hour with 100 μl of blocking buffer at room temperature. The plates were washed 4 times with 225 μl of 1×PBS and 80 μl of the reaction buffer were added that contained 100 ng/well of Flag-ubiquitin. To this, 10 μl of the test compound diluted in DMSO were added. After the test compound was added, 10 μl of E1 (human), E2 (Ubch5c), and APC in Protein Buffer was added to obtain a final concentration of 5 ng/well of E1, 20 ng/well: of E2 and 100 ng/well of APC. The plate were shaken for 10 minutes and incubated at room temperature for 1 hour. After incubation, the plates were washed 4 times with 225 μl of 1×PBS and 100 μl/well of Antibody Mix were added to each well. The plates were incubate at room temperature for another hour after which they were washed 4 times with 225 μl of 1×PBS and 100 μl/well of Lumino substrate were added to each well. The luminescence was measured by using a BMG luminescence microplate reader.
In similar manner, autoubiquitination of the E3 MDM2 was determined (MDM2-FLAG). Further instruction in such assays can be found in U.S. patent application Ser. No. 10/108,767 (Publication No. US-2003-0104474 A1), which is incorporated herein in its entirety.
hMDM2 Plate/Gel is Mouse double minute 2, human homolog. This protein belongs to the E3 RING finger ligase group.

Assay [1] deals with E3 (His-APC11/APC2, "APC") (Homo sapiens, UniProt Q9NYG5+Q9UJX6). The experiment in a line: Plate-based E3 ligase assay (APC FLAG), auto-ubiquitination. The following applies: Table 2; read-out: APC IC50. On the procedure:
as §1, §2
APC Plate/gel is Anaphase Promoting Complex. This protein also belongs to E3 RING finger ligase group.

Another assay addresses E2 (Ubch5c) (Homo sapiens, UniProt P61077). The experiment in a line: E2 ligase assay, E2 auto-ubiquitination. The following applies: Table 2. As to the method:
E2 (Ubch5c) auto-ubiquitination was measured as described in U.S. patent application Ser. No. 09/826,312 (Publication No. US-2002-0042083-A1), which is incorporated herein in its entirety. Details of the protocol are described below. Activity in the presence of the test compound was determined relative to a parallel control in which only DMSO was added. The IC50 values were typically determined using 6 or 8 different concentrations of compound, although as few as 2 concentrations may be used to approximate IC50 values.
Corning 96-well plates (Corning 3650) were blocked with 100 μl of Blocking Buffer for 1 hour at room temperature. The plates were washed for 4 times with 225 μl of 1×PBS and 80 μl of the reaction buffer were added that contained 100 ng/well of Flag-ubiquitin. To this, 10 μl of the test compound diluted in DMSO were added. After the test compound was added, 10 μl of E1 (human) and E2 (Ubch5c) in Protein Buffer were added to obtain a final concentration of 5 ng/well of E1 and 20 ng/well of E2. The plates were shaken for 10 minutes and incubated at room temperature for 1 hour. After incubation, the reaction was stopped by adding 25 μl of loading buffer (non-reducing) per well and the plates were heated at 95° C. for 5 minutes. An aliquot of each well was run on a 10% NugePage Gel and analyzed by Western Blot using the antibody mix and Lumino substrate described below. The luminescence was measured using a BMG luminescence microplate reader.

Bounds are passed on as bounds.

Chain of E2 (Ubch5c) (P61077 whole entry): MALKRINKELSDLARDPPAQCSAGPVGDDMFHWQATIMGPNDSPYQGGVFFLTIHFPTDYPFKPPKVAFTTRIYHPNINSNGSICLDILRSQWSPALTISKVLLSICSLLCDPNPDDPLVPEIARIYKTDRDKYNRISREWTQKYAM
Chain of E3 (His-APC11/APC2, "APC") (Q9NYG5 whole entry): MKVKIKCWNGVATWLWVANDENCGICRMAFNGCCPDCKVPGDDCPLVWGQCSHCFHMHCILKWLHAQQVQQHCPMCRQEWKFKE
Chain of E3 (His-APC11/APC2, "APC") (Q9UJX6 whole entry): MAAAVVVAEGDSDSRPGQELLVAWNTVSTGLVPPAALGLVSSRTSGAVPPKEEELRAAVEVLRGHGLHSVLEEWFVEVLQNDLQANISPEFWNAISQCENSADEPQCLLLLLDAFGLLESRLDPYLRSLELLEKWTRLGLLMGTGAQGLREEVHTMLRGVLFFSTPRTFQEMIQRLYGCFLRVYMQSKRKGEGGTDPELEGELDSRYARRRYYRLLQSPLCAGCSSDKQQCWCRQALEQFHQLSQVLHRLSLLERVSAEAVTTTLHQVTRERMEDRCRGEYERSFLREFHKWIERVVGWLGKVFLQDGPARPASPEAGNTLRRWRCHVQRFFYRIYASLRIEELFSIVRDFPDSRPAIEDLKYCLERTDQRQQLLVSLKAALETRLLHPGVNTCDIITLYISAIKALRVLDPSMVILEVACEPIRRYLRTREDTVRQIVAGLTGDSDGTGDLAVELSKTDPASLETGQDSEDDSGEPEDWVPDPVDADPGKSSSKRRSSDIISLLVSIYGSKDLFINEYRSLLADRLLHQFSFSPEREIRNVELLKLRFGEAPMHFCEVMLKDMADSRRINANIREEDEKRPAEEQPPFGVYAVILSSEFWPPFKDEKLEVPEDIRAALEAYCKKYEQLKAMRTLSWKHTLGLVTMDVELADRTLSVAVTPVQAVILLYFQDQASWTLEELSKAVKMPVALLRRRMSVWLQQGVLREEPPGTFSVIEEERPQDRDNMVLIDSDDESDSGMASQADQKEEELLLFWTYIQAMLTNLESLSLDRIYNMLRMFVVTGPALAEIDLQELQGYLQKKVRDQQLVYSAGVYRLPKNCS
Chain of MDM2 (Q00987 whole entry): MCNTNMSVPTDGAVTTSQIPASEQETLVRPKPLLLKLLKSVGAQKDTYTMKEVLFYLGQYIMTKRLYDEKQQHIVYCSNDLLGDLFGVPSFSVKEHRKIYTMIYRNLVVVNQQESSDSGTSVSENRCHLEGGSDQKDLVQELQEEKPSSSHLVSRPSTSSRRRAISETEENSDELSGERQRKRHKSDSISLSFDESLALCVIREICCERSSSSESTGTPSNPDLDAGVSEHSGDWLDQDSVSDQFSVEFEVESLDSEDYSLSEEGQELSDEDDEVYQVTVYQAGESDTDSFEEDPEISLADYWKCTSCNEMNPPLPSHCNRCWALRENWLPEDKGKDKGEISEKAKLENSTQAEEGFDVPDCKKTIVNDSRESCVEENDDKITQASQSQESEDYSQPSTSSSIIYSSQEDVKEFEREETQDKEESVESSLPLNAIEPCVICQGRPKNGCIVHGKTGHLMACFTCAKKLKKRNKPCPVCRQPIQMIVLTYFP

With `Cc1sc(N(C)Cc2ccc(C(=O)NCc3cccc(CN)c3)cc2)nc1-c1ccccc1` [compound 14], the IC50 (on MDM2; in assay [1]) was no less than 20 µM in each case.
Regarding `CN(Cc1ccc(C(=O)NC(Cc2ccccc2)C(=O)O)cc1)c1nc(-c2ccc(Cl)cc2)cs1` (stereo not drawn) [compound 15], the IC50 (on MDM2; in assay [1]) was 1 to 20 µM each time.
As to `CCN(Cc1ccc(C(=O)NCc2cccc(CN)c2)cc1)c1nc(-c2ccc(-c3ccccc3)cc2)cs1` [compound 65], the IC50 (at MDM2; in assay [1]) was 1 to 20 µM in each case.
With `CCN(Cc1ccc(C(=O)NCC(=O)O)cc1)c1nc(-c2ccc(Cl)cc2)cs1` [compound 146, N-(4-{[[4-(4-chlorophenyl)-1,3-thiazol-2-yl](ethyl)amino]methyl}benzoyl)glycine], the half-maximal inhibitory concentration (IC50) on MDM2 was no less than 20 µM.
Turning to `COc1cccc(-c2csc(N(Cc3ccccc3)Cc3ccc(C(=O)NCC(=O)O)cc3)n2)c1` [compound 177], at MDM2, the IC50 was less than 1 µM.
Regarding `O=C(O)CNC(=O)c1ccc(CN(CCc2ccccc2)c2nc(-c3ccccc3)cs2)cc1` [compound 186], the IC50 on MDM2 fell in the range of 1 to 20 µM.
For `CCN(Cc1ccc(C(=O)NCC(=O)O)cc1)c1nc(-c2ccc(-c3ccccc3)cc2)cs1` [compound 193], the concentration for half-maximal inhibition (IC50) on MDM2 was 1 to 20 µM.
Turning to `COc1ccc(OC)c(-c2csc(N(Cc3ccccc3)Cc3ccc(C(=O)NCC(=O)O)cc3)n2)c1` [compound 207], the IC50 at MDM2 is 1 to 20 µM.
With `COc1ccc(OC)c(-c2csc(N(Cc3ccc(C(=O)NCC(=O)O)cc3)c3ccccc3F)n2)c1` [compound 215], the concentration for half-maximal inhibition (IC50) on MDM2 is less than 1 µM; in assay [1] it was 1 to 20 µM.
Turning to `O=C(O)CNC(=O)c1ccc(CN(Cc2ccccc2)c2nc(-c3ccccc3)cs2)cc1` [compound 216], the IC50 at MDM2 is 1 to 20 µM.
Turning to `COc1ccc(-c2csc(N(Cc3ccc(C(=O)N4CCNCC4)cc3)Cc3cccc(OC(F)(F)F)c3)n2)cc1` [compound 222], the half-inhibitory concentration (IC50) (at MDM2; in assay [1]) was no less than 20 µM throughout.
Turning to `COc1ccc(-c2csc(N(CCOc3ccccc3)Cc3ccc(C(=O)N4CCNCC4)cc3)n2)cc1` [compound 223], the half-maximal inhibitory concentration (IC50) (at MDM2; in assay [1]) was no less than 20 µM each time.
On to `COc1cccc(CN(Cc2ccc(C(=O)N3CCNCC3)cc2)c2nc(-c3cccc([N+](=O)[O-])c3)cs2)c1OC` [compound 224], for which the IC50 (on MDM2; in assay [1]) was no less than 20 µM each time.
For the compound `CC(C)N(CCN(Cc1ccc(C(=O)N2CCNCC2)cc1)c1nc(-c2ccccc2Cl)cs1)C(C)C` [compound 225], the half-maximal inhibitory concentration (IC50) (on MDM2; in assay [1]) was no less than 20 µM each time.
With `COc1ccc(-c2csc(N(CCN(C(C)C)C(C)C)Cc3ccc(C(=O)N4CCNCC4)cc3)n2)cc1` [compound 227], the IC50 (at MDM2; in assay [1]) was no less than 20 µM in each case.
In the case of `O=C(c1ccc(CN(Cc2cccc(OC(F)(F)F)c2)c2nc(-c3cccc([N+](=O)[O-])c3)cs2)cc1)N1CCNCC1` [compound 228], the IC50 was no less than 20 µM at MDM2 and 1 to 20 µM in assay [1].
Regarding `COc1cccc(CN(Cc2ccc(C(=O)N3CCNCC3)cc2)c2nc(-c3ccc(C)cc3)cs2)c1OC` [compound 230], the IC50 on MDM2 was no less than 20 µM; in assay [1], 1 to 20 µM.
For `COc1cccc(-c2csc(N(CCN(C(C)C)C(C)C)Cc3ccc(C(=O)N4CCNCC4)cc3)n2)c1` [compound 231], the IC50 (at MDM2; in assay [1]) was no less than 20 µM in each case.
Regarding `Cc1ccc(-c2csc(N(Cc3ccc(C(=O)N4CCNCC4)cc3)Cc3cccc(OC(F)(F)F)c3)n2)cc1` [compound 235], the half-maximal inhibitory concentration (IC50) (at MDM2; in assay [1]) was 1 to 20 µM each time.
With `COc1cccc(CN(Cc2ccc(C(=O)N3CCNCC3)cc2)c2nc(-c3ccc(Cl)cc3)cs2)c1OC` [compound 245], the half-maximal inhibitory concentration (IC50) was no less than 20 µM on MDM2 and 1 to 20 µM in assay [1].
Take `O=C(c1ccc(CN(Cc2cccc(OC(F)(F)F)c2)c2nc(-c3ccc(Cl)cc3)cs2)cc1)N1CCNCC1` [compound 251]: the IC50 (on MDM2; in assay [1]) was no less than 20 µM each time.
`O=C(c1ccc(CN(CCOc2ccccc2)c2nc(-c3ccc(Cl)cc3)cs2)cc1)N1CCNCC1` [compound 252]: the figures for the IC50 (on MDM2; in assay [1]) were no less than 20 µM and 1 to 20 µM, respectively.
As to `COc1ccc(OC)c(-c2csc(N(Cc3ccc(C(=O)N4CCNCC4)cc3)Cc3cccc(OC(F)(F)F)c3)n2)c1` [compound 267], the 50% inhibitory concentration (IC50) on MDM2 was no less than 20 µM; in assay [1] it was 1 to 20 µM.
As to `COc1ccc(OC)c(-c2csc(N(CCOc3ccccc3)Cc3ccc(C(=O)N4CCNCC4)cc3)n2)c1` [compound 268], the 50% inhibitory concentration (IC50) (on MDM2; in assay [1]) was no less than 20 µM throughout.
Take `COc1cccc(CN(Cc2ccc(C(=O)N3CCNCC3)cc2)c2nc(-c3ccc(C)cc3)cs2)c1OC` [compound 283]: in assay [1], the 50% inhibitory concentration (IC50) is no less than 20 µM.
`O=C(c1ccc(CN(c2nc(-c3ccc(Cl)cc3)cs2)c2cccc3ccccc23)cc1)N1CCNCC1` [compound 289]: the IC50 (on MDM2; in assay [1]) was no less than 20 µM in each case.
`O=C(c1ccc(CN(CCOc2ccccc2)c2nc(-c3ccc(F)cc3)cs2)cc1)N1CCNCC1` [compound 290]: the IC50 (at MDM2; in assay [1]) was no less than 20 µM throughout.
As to `COc1ccc(-c2csc(N(Cc3ccc(C(=O)N4CCNCC4)cc3)Cc3cccc(OC)c3OC)n2)cc1` [compound 291], the IC50 at MDM2 is no less than 20 µM; in assay [1], 1 to 20 µM.
With `COc1ccccc1-c1csc(N(CCN(C(C)C)C(C)C)Cc2ccc(C(=O)N3CCNCC3)cc2)n1` [compound 292], the concentration for half-maximal inhibition (IC50) (at MDM2; in assay [1]) was no less than 20 µM in each case.
As to `COc1cccc(CN(Cc2ccc(C(=O)N3CCNCC3)cc2)c2nc(-c3ccc(Cl)c(Cl)c3)cs2)c1OC` [compound 297], the values for the IC50 (on MDM2; in assay [1]; on E2 (Ubch5c)) were 1 to 20 µM, 1 to 20 µM and no less than 20 µM, respectively.
As to `COc1ccccc1-c1csc(N(Cc2ccc(C(=O)N3CCNCC3)cc2)Cc2cccc(OC(F)(F)F)c2)n1` [compound 328], the results for the IC50 (on MDM2; in assay [1]; against E2 (Ubch5c)) were 1 to 20 µM, 1 to 20 µM and no less than 20 µM, respectively.
In the case of `O=C(c1ccc(CN(Cc2cccc(OC(F)(F)F)c2)c2nc(-c3ccc(Br)cc3)cs2)cc1)N1CCNCC1` [compound 343], the half-inhibitory concentration (IC50) (at MDM2; in assay [1]) was 1 to 20 µM in each case.
Regarding `O=C(c1ccc(CN(CCOc2ccccc2)c2nc(-c3ccc(Br)cc3)cs2)cc1)N1CCNCC1` [compound 344], the IC50 (at MDM2; in assay [1]) was 1 to 20 µM in each case.
For `COc1cccc(CN(Cc2ccc(C(=O)N3CCNCC3)cc2)c2nc(-c3ccccc3Cl)cs2)c1OC` [compound 345], the IC50 on MDM2 was no less than 20 µM; in assay [1], 1 to 20 µM; on E2 (Ubch5c), no less than 20 µM.
Turning to `O=C(c1ccc(CN(Cc2cccc(OC(F)(F)F)c2)c2nc(-c3ccc(Cl)c(Cl)c3)cs2)cc1)N1CCNCC1` [compound 359], the half-inhibitory concentration (IC50) (at MDM2; in assay [1]) was 1 to 20 µM each time.

For the origin of these results see patent US20060160869A1, “Ubiquitin ligase inhibitors” (Rigel Pharmaceuticals, Inc., priority 2005, published 2006).
